{"source": "patent US20190069552A1", "about": "“METHOD TO CONTROL PYRIMETHANIL TOLERANT FUNGI” (Janssen Pharmaceutica NV, priority 2016, published 2019)", "key": {"[1]": {"system": "Penicillium expansum strain PE110014, pyrimethanil-resistant", "assay": "Poison plate assay on glucose agar, strain PE110014", "assay_type": "cell-based", "description": "(§1) • Name of component (I): pyrimethanil • Name of component (II): hexanoic acid (=CH3—(CH2)n—COOH wherein n is 4) • Test setup: to each well of a 24-well microtiter plate, 2 ml of Glucose Agar (GA: 10 g glucose, 1.5 g K2HPO4, 2 g KH2PO4, 1 g (NH4)2SO4, 0.5 g MgSO4 and 12.5 g agar in 1 litre deionised water) is added. The test compounds pyrimethanil as well as an alkane carboxylic acid (II) are dissolved in DMSO at the appropriate concentration and added to the liquid agar in a 5 μl droplet each. The nutrient medium is inoculated with the test fungi by adding 2.5 µl of a spore/mycelium suspension. The microwell plates are then incubated in the dark at 20° C. and 60% relative humidity. The growth of the fungi is evaluated after two weeks, when the growth diameter of untreated controls has reached 15 mm.\n(§2) After a suitable incubation period, colony diameters on the agar are measured. Percentage growth (not % effect, see below) is then calculated for each treatment by comparing the colony diameter with the diameter for untreated controls (which is 15 mm).\n(§3) The effect of adding an alkane carboxylic acid of formula CH3—(CH2)n—COOH (wherein n is 4 to 7) to restore sensitivity of pyrimethanil-resistant or pyrimethanil-tolerant fungi to pyrimethanil was calculated using the Colby synergy formula (Colby S. R., Weeds (1967), 15(1), 20-22).\n(§4) When a is the % growth (not the % activity) still observed under treatment with compound A alone at a given concentration and b is the % growth still observed under treatment with compound B alone at a given concentration, the expected growth exp under treatment with the combination of both compounds at the same concentrations is:\n(§5) When the observed growth of the test pathogens under the combination is less than the expected growth, there is synergy."}, "[2]": {"system": "Penicillium expansum PE110091 (pyrimethanil-tolerant)", "assay": "Treatment of fruit (curative dip, Bio-apple Elstar)", "assay_type": "in vivo", "conditions": "for % effect after 6 days (observed) / % effect after 9 days (observed): apple Elstar, curative", "description": "untreated apples or pears (details below), inoculated with fungal pathogens by wounding the fruits with a contaminated pricker on two spots, and incubated at 20° C. and 96% relative humidity.\nCurative: fruits are first infected with a pricker and treated by dipping four hours later.\nAfter a suitable incubation period, the diameters of the infected spots are measured with a calliper. The average diameter is calculated for all spots in the same treatment (between 14 and 40 spots per treatment, see below). Percentage effect of the treatment is then calculated by comparing the average spot diameter with the average for untreated controls.\nThe effect of adding an alkane carboxylic acid of formula CH3—(CH2)n—COOH (wherein n is 4 to 7) to restore sensitivity of pyrimethanil-resistant or pyrimethanil-tolerant fungi to pyrimethanil was calculated using the Limpel synergy formula (Limpel, L. E. et al. (1962) “Weed control by dimethyl tetrachloroterephthalate alone and in certain combinations”, Proceedings of the N. E. Weed Control Conference 16: 48-53). When a is the % effect obtained by compound A alone at a given concentration and b is the % effect obtained by compound B alone at a given concentration, the expected effect e of the combination of both compounds at the same concentrations is:\nPyrimethanil was added to tap water as a 40% commercially available PENBOTEC 400SC formulation to obtain a concentration of 100 ppm pyrimethanil. The alkanoic acid was added to tap water to obtain a 2000 ppm solution, or the alkanoic acid was added to the pyrimethanil composition with a concentration of 2000 ppm.\nFruit: Bio-apple “Elstar”\nPathogen: Penicillium expansum PE110091 (pyrimethanil-tolerant)\nRepeats: Two wounds per fruit, 15 fruits per treatment\nEvaluations: 17 March (6 days), 20 March (9 days) Average rot diameter untreated: 6 days: 21.3 mm 9 days: 36.0 mm"}, "[3]": {"system": "Penicillium expansum strain PE110030, pyrimethanil-resistant", "assay": "Poison plate assay on glucose agar, strain PE110030", "assay_type": "cell-based", "description": "as §1, §2, §3, §4, §5"}, "[4]": {"system": "Penicillium expansum strain PE110048, pyrimethanil-resistant", "assay": "Poison plate assay on glucose agar, strain PE110048", "assay_type": "cell-based", "description": "as §1, §2, §3, §4, §5"}, "[5]": {"system": "Penicillium expansum strain PE110030", "assay": "Pyrimethanil sensitivity of strain PE110030", "assay_type": "cell-based", "conditions": "strain PE110030, pyrimethanil-resistant"}, "[6]": {"system": "Penicillium expansum strain PE110014", "assay": "Pyrimethanil sensitivity of strain PE110014", "assay_type": "cell-based", "conditions": "strain PE110014, pyrimethanil-resistant"}, "[7]": {"system": "Penicillium expansum PE110091", "assay": "Pyrimethanil sensitivity of strain PE110091", "assay_type": "cell-based", "conditions": "strain PE110091, pyrimethanil-tolerant"}, "[8]": {"system": "Penicillium expansum PE110101", "assay": "Pyrimethanil sensitivity of strain PE110101", "assay_type": "cell-based", "conditions": "strain PE110101, pyrimethanil-sensitive"}, "[9]": {"system": "Penicillium expansum strain PE110048", "assay": "Pyrimethanil sensitivity of strain PE110048", "assay_type": "cell-based", "conditions": "strain PE110048, pyrimethanil-resistant"}, "[10]": {"conditions": "hexanoic acid alone at 250, 500 and 750 ppm"}, "[11]": {"conditions": "pyrimethanil 10 ppm alone, two weeks"}, "[12]": {"conditions": "pyrimethanil 100 ppm alone (PENBOTEC 400SC)"}}, "data": [{"smiles": "CCCCCC(=O)O", "note": "[hexanoic acid]", "values": [{"measurement": "% growth (observed)", "setting": "[1]; hexanoic acid 250 ppm alone", "value": 100, "unit": "%"}, {"measurement": "% growth (observed)", "setting": "[1]; hexanoic acid 500 ppm alone", "value": 100, "unit": "%"}, {"measurement": "% growth (observed)", "setting": "[1]; hexanoic acid 750 ppm alone", "value": 100, "unit": "%"}, {"measurement": "fungicidal effect (in words)", "setting": "[1]; [10]", "value": "no fungicidal effect"}, {"measurement": "fungicidal effect (in words)", "setting": "[2]; PE110091 on apple, hexanoic acid alone at 2000 ppm", "value": "little fungicidal effect"}, {"measurement": "% effect after 6 days (observed)", "setting": "[2]; hexanoic acid 2000 ppm alone", "value": 15, "unit": "%"}, {"measurement": "% effect after 9 days (observed)", "setting": "[2]; hexanoic acid 2000 ppm alone", "value": 6, "unit": "%"}, {"measurement": "% growth (observed)", "setting": "[3]; hexanoic acid 250 ppm alone", "value": 100, "unit": "%"}, {"measurement": "% growth (observed)", "setting": "[3]; hexanoic acid 500 ppm alone", "value": 100, "unit": "%"}, {"measurement": "% growth (observed)", "setting": "[3]; hexanoic acid 750 ppm alone", "value": 100, "unit": "%"}, {"measurement": "fungicidal effect (in words)", "setting": "[3]; [10]", "value": "no fungicidal effect"}, {"measurement": "% growth (observed)", "setting": "[4]; hexanoic acid 250 ppm alone", "value": 100, "unit": "%"}, {"measurement": "% growth (observed)", "setting": "[4]; hexanoic acid 500 ppm alone", "value": 100, "unit": "%"}, {"measurement": "% growth (observed)", "setting": "[4]; hexanoic acid 750 ppm alone", "value": 100, "unit": "%"}, {"measurement": "fungicidal effect (in words)", "setting": "[4]; [10]", "value": "no fungicidal effect"}]}, {"smiles": "Cc1cc(C)nc(Nc2ccccc2)n1", "note": "[pyrimethanil, 4,6-dimethyl-N-phenyl-2-pyrimidinamine]", "values": [{"measurement": "% growth (observed)", "setting": "[1]; [11]", "value": 67, "unit": "%"}, {"measurement": "% effect after 6 days (observed)", "setting": "[2]; [12]", "value": 19, "unit": "%"}, {"measurement": "% effect after 9 days (observed)", "setting": "[2]; [12]", "value": 12, "unit": "%"}, {"measurement": "EC50", "setting": "[5]", "value": 16.38, "unit": "ppm"}, {"measurement": "EC95", "setting": "[5]", "value": "> 100", "unit": "ppm"}, {"measurement": "% growth (observed)", "setting": "[3]; [11]", "value": 80, "unit": "%"}, {"measurement": "EC50", "setting": "[6]", "value": 15.40, "unit": "ppm"}, {"measurement": "EC95", "setting": "[6]", "value": "> 100", "unit": "ppm"}, {"measurement": "% growth (observed)", "setting": "[4]; [11]", "value": 53, "unit": "%"}, {"measurement": "EC50", "setting": "[7]", "value": 5.01, "unit": "ppm"}, {"measurement": "EC95", "setting": "[7]", "value": 74.99, "unit": "ppm"}, {"measurement": "EC50", "setting": "[8]", "value": 0.29, "unit": "ppm"}, {"measurement": "EC95", "setting": "[8]", "value": 0.88, "unit": "ppm"}, {"measurement": "EC50", "setting": "[9]", "value": 22.39, "unit": "ppm"}, {"measurement": "EC95", "setting": "[9]", "value": "> 100", "unit": "ppm"}]}]}
